# Test results taken from patent US10590085B2, “Heterocyclic amides as kinase inhibitors” (GlaxoSmithKline Intellectual Property Development Limited, priority 2015, dated 2020).
# Tests used:
# RIP1 kinase = target: T1, RIP1 kinase (Homo sapiens, UniProt Q13546); experiment: fluorescent polarization based binding assay; settings: mean value, minimum of 2 experiments
# T1 sequence (Q13546 1-375 limits assumed): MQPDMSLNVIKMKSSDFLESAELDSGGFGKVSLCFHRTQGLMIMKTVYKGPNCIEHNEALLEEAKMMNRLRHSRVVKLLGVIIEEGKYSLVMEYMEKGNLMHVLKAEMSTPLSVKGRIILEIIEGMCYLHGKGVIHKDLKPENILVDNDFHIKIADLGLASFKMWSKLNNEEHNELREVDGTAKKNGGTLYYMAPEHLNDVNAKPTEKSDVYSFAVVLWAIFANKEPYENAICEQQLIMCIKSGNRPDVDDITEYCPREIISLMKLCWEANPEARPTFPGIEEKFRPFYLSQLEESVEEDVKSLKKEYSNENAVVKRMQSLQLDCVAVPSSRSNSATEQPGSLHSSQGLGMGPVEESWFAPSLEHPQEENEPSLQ
# Excerpt: A fluorescent polarization based binding assay was used to asses the activity of the compounds of this invention, the details of which are disclosed in International Patent Appln. No. PCT/IB2014/059004, now, International Patent Appln. Pub.
# [1] = system: mouse L929 fibrosarcoma cells; experiment: necroptosis assay in L929 cells; type: cell-based; settings: viability by cellular ATP (Cell Titer-Glo), read-out: mean pIC50, inhibition of necrosis in L929 cells (converted)
# Experimental: (§1) The efficacy of RIP1 inhibitors can be tested […] in vitro using a human monocytic leukemia U937 or mouse L929 fibrosarcoma cells in a necroptosis assay. As determined using the method described in He, S. et al. 2009. Cell 137(6):1100-1111 and International Patent Appln. No. PCT/IB2014/059004, now, International Patent Appln. Pub.
# (§2) Viability was measured by quantitating cellular levels of ATP using the Cell Titer-Glo kit. All data are means±standard deviation of the mean.
# [2] = system: human monocytic leukemia U937 cells; experiment: necroptosis assay in U937 cells; type: cell-based; settings: viability by cellular ATP (Cell Titer-Glo); for IC50: Homo sapiens, U-937, U937 cells, read-out: mean pIC50, inhibition of necrosis in U937 cells (converted)
# Experimental: as §1, §2
# [3] = system: TNF/zVAD induced temperature loss in mice; experiment: TNF-driven systemic inflammatory response syndrome model using TNF plus zVAD (temperature loss); type: in vivo, mouse; settings: pre-dosed 15 minutes before i.v. mouse TNF and zVAD
Compound,IC50 (RIP1 kinase) [nM],IC50 [1] [nM],IC50 [2] [nM],further results
"O=C(C1CCN(c2ccc(F)cn2)CC1)N1N=CCC1c1ccccc1 (centres unmarked) [Example 2, (1-(5-fluoropyridin-2-yl)-piperidin-4-yl)(5-phenyl-4,5-dihydro-1H-pyrazol-1-yl)methanone]",~39.8,~200,–,–
"O=C(C1CCN(c2ccc(F)cn2)CC1)N1N=CC[C@H]1c1ccccc1 [Example 3, (S)-(1-(5-fluoropyridin-2-yl)piperidin-4-yl)(5-phenyl-4,5-dihydro-1H-pyrazol-1-yl)methanone]",1 to 10,–,1 to 100,–
"O=C(C1CCN(c2ncc(F)cn2)CC1)N1N=CC[C@H]1c1ccccc1 [Example 7, (S)-(1-(5-fluoropyrimidin-2-yl)piperidin-4-yl)(5-phenyl-4,5-dihydro-1H-pyrazol-1-yl)methanone]",1 to 10,–,1 to 100,–
"O=C(C1CCN(c2ncccn2)CC1)N1N=CCC1c1cncc(F)c1 (centres unmarked) [Example 11, (5-(5-fluoropyridin-3-yl)-4,5-dihydro-1H-pyrazol-1-yl)(1-(pyrimidin-2-yl)-piperidin-4-yl)methanone]",~31.6,–,–,–
"CC(=O)N1CCC(C(=O)N2N=CCC2c2ccc3c(c2)OCO3)CC1 (centres unmarked) [Example 12, 1-(4-(5-(benzo[d][1,3]-dioxol-5-yl)-4,5-dihydro-1H-pyrazole-1-carbonyl)-piperidin-1-yl)ethanone]",~501,–,–,–
"CC(C)(C)C(=O)N1N=CC[C@H]1c1cncc(F)c1 [Example 15, (S)-1-(5-(5-fluoro-pyridin-3-yl)-4,5-dihydro-1H-pyrazol-1-yl)-2,2-dimethyl-propan-1-one]",~79.4,~20,–,"mean pIC50, inhibition of necrosis in U937 cells [2]: ~7.2"
"Cc1ccc(C(=O)N2N=CCC2c2ccccc2)cc1 (centres unmarked) [Example 17, (5-phenyl-4,5-dihydro-1H-pyrazol-1-yl)(p-tolyl)-methanone]",~126,–,~631,–
"O=C(C1CCN(c2ncccn2)CC1)N1N=CC[C@H]1c1cccnc1 [Example 32, (S)-(5-(pyridin-3-yl)-4,5-dihydro-1H-pyrazol-1-yl)(1-(pyrimidin-2-yl)-piperidin-4-yl)-methanone]",~31.6,–,~158,–
"CC(C)(C)C(=O)N1N=CC[C@H]1c1ccc(Cl)c(Cl)c1 [Example 40, (S)-1-(5-(3,4-dichlorophenyl)-4,5-dihydro-1H-pyrazol-1-yl)-2,2-dimethyl-propan-1-one]",~50.1,~15.8,–,–
"CC(C)(C)C(=O)N1N=CC[C@H]1c1cccc(Cl)c1 [Example 44, (S)-1-(5-(3-chlorophenyl)-4,5-dihydro-1H-pyrazol-1-yl)-2,2-dimethyl propan-1-one]",–,~39.8,–,–
"Cc1ccc([C@@H]2CC=NN2C(=O)C(C)(C)C)cn1 [Example 50, (S)-2,2-dimethyl-1-(5-(6-methylpyridin-3-yl)-4,5-dihydro-1H-pyrazol-1-yl)propan-1-one]",~631,~20,~158,–
"CC(C)(C)C(=O)N1N=CC[C@H]1C1CCCCC1 [Example 56, (S)-1-(5-cyclohexyl-4,5-dihydro-1H-pyrazol-1-yl)-2,2-dimethylpropan-1-one]",–,~50.1,–,–
"CC(C)(C)C(=O)N1N=CC[C@H]1c1ccc(C(F)(F)F)cc1 [Example 62, (S)-2,2-dimethyl-1-(5-(4-(trifluoromethyl)-phenyl)-4,5-dihydro-1H-pyrazol-1-yl)propan-1-one]",~79.4,–,–,"mean pIC50, inhibition of necrosis in U937 cells [2]: ~7.2"
"CC(C)(C)C(=O)N1N=CC[C@H]1c1cccc(F)c1 [Example 68, (S)-1-(5-(3-fluorophenyl)-4,5-dihydro-1H-pyrazol-1-yl)-2,2-dimethyl-propan-1-one 2,2,2-trifluoroacetate]",–,~5.01,–,–
"O=C(C1CCN(c2ccccn2)CC1)N1N=CC[C@H]1c1cccnc1 [Example 70, (S)-(1-(pyridin-2-yl)piperidin-4-yl) (5-(pyridin-3-yl)-4,5-dihydro-1H-pyrazol-1-yl)-methanone]",~398,–,–,–
"CC(C)(C)C(=O)N1N=CC[C@H]1c1ccc2[nH]ccc2c1 [Example 91, (S)-1-(5-(1H-indol-5-yl)-4,5-dihydro-1H-pyrazol-1-yl)-2,2-dimethylpropan-1-one]",~251,~251,~100,–

Compound,IC50 (RIP1 kinase) [nM],IC50 [1] [nM],IC50 [2] [nM],further results
"CC(C)(C)C(=O)N1N=CC[C@H]1c1cccc2[nH]ccc12 [Example 93, (S)-1-(5-(1H-indol-4-yl)-4,5-dihydro-1H-pyrazol-1-yl)-2,2-dimethylpropan-1-one]",~100,~79.4,–,"mean pIC50, inhibition of necrosis in U937 cells [2]: ~7.0"
"O=C(c1cnsn1)N1CCC(C(=O)N2N=CCC2c2ccccc2)CC1 (centres unmarked) [Example 155, (1-(1,2,5-thiadiazole-3-carbonyl)piperidin-4-yl)(5-phenyl-4,5-dihydro-1H-pyrazol-1-yl)methanone]",–,–,1 to 100,% Inhibition ([3]; 10 mg/kg PO): 49%
"Cc1ocnc1C(=O)N1CCC(C(=O)N2N=CCC2c2ccccc2)CC1 (centres unmarked) [Example 158, (5-methyloxazol-4-yl)(4-(5-phenyl-4,5-dihydro-1H-pyrazole-1-carbonyl)piperidin-1-yl)methanone]",–,–,1 to 100,% Inhibition ([3]; 10 mg/kg PO): 77%
"O=C(C1CCN(c2ncccn2)CC1)N1N=CC[C@H]1c1ccccc1 [Example 172, (S)-(5-phenyl-4,5-dihydro-1H-pyrazol-1-yl)(1-(pyrimidin-2-yl)piperidin-4-yl)methanone]",–,~631,–,–
"O=C(C1CCN(c2ccccn2)CC1)N1N=CCC1c1ccccc1 (centres unmarked) [Example 176, (5-phenyl-4,5-dihydro-1H-pyrazol-1-yl)(1-(pyridin-2-yl)piperidin-4-yl)methanonc 2,2,2-trifluoroacctate]",–,–,1 to 100,–
"O=C(C1CCN(c2ccccn2)CC1)N1N=CC[C@H]1c1ccccc1 [Example 177, (S)-(5-phenyl-4,5-dihydro-1H-pyrazol-1-yl)(1-(pyridin-2-yl)piperidin-4-yl)methanone]",–,–,1 to 100,–
"O=C(C1CCN(c2ccc(C(F)(F)F)cn2)CC1)N1N=CCC1c1ccccc1 (centres unmarked) [Example 179, (5-phenyl-4,5-dihydro-1H-pyrazol-1-yl)(1-(5-(trifluoromethyl)pyridin-2-yl)piperidin-4-yl)methanone 2,2,2-trifluoroacetate]",–,–,1 to 100,–
"O=C(C1CCN(c2nc3ccccc3o2)CC1)N1N=CCC1c1ccccc1 (centres unmarked) [Example 180, (1-(benzo[d]oxazol-2-yl)piperidin-4-yl)(5-phenyl-4,5-dihydro-1H-pyrazol-1-yl)methanone 2,2,2-trifluoroacetate]",–,–,1 to 100,–
"O=C(C1CCN(c2ncc(F)cn2)CC1)N1N=CCC1c1ccc2c(c1)CCC2 (centres unmarked) [Example 184, (5-(2.3-dihydro-1H-inden-5-yl)-4,5-dihvdro-1H-pyrazol-1-yl)(1-(5-fluoropyrimidin-2-yl)piperidin-4-yl)methanone]",–,–,1 to 100,–
"O=C(C1CCN(c2ncc(F)cn2)CC1)N1N=CCC1c1ccc(OC(F)F)cc1 (stereo not drawn) [Example 185, (5-(4-(difluoromethoxy)phenyl)-4,5-dihydro-1H-pyrazol-1-yl)(l-(5-fluoropyrimidin-2-yl)piperidin-4-yl)methanone]",–,–,1 to 100,–
"Cc1ccc(C2CC=NN2C(=O)C2CCN(c3ncc(F)cn3)CC2)cn1 (centres unmarked) [Example 187, (1-(5-fluoropyrimidin-2-yl)piperidin-4-yl)(5-(6-methylpyridin-3-yl)-4,5-dihydro-1H-pyrazol-1-yl)methanone]",–,–,1 to 100,–
"N#Cc1ccc(C2CC=NN2C(=O)C2CCN(c3ncc(F)cn3)CC2)cc1 (centres unmarked) [Example 188, 4-(1-(1-(5-fluoropyrimidin-2-yl)piperidine-4-carbonyl)-4,5-dihydro-1H-pyrazol-5-yl)benzonitrile]",–,–,1 to 100,–
"O=C(N1N=CCC1c1ccccc1)C1(F)CCN(c2ncc(F)cn2)CC1 (centres unmarked) [Example 189, (4-fluoro-1-(5-fluoropyrimidin-2-yl)piperidin-4-yl)(5-phenyl-4,5-dihydro-1H-pyrazol-1-yl)methanone]",1 to 10,–,1 to 100,–
"CC1(C(=O)N2N=CCC2c2ccccc2)CCN(c2ncc(F)cn2)CC1 (centres unmarked) [Example 190, (1-(5-fluoropyrimidin-2-yl)-4-methylpiperidin-4-yl)(5-phenyl-4,5-dihydro-1H-pyrazol-1-yl)methanone]",–,–,1 to 100,–
"CC(=O)N1CCC(C(=O)N2N=CCC2c2ccccc2)CC1 (centres unmarked) [Example 193, 1-(4-(5-phenyl-4,5-dihydro-1H-pyrazole-1-carbonyl)piperidin-1-yl)ethanone]",–,–,–,% Inhibition ([3]; 140 mg/kg PO): 94%
O=C(c1cccnc1)N1N=CCC1c1ccccc1 (centres unmarked) [Example 209],–,–,~2000,–
